Test results reported in patent publication US20230141603A1, “BENZODIAZEPINE DERIVATIVES AS GABA A GAMMA1 PAM” (Hoffmann-La Roche Inc., priority 2021, published 2023).

Key:
[1] = target: T1, h-GABAA α1β3γ2 (Homo sapiens, UniProt P14867+P18507); experiment: Radioligand binding assay, [3H]Flumazenil competition, HEK293F membranes; details: for γ2/γ1 Selectivity Ratio: Ki α1β3γ2 (nM)/Ki α2β2γ1 (nM); for LogSel: Log[Ki α1β3γ2 (nM)/Ki α2β2γ1 (nM)]
T1 construct: expressed in transfected cells; host or cells: HEK293F cells, membranes
Method: The affinity of compounds at GABAA γ2 subunit-containing receptors was measured by competition for [^3H]Flumazenil (81.1 Ci/mmol; Roche) binding to HEK293F cells expressing human (transiently transfected) receptors of composition α1β3γ2.
Harvested pellets from HEK293F cells expressing the different GABAA γ2 receptor subtypes were resuspended in Mannitol Buffer pH 7.2-7.4 and processed as described above for the cells expressing the GABAA γ1 subunit-containing receptors.
Assays were incubated to equilibrium for 1 hour at 4° C. and harvested onto GF/C uni-filters (Packard) by filtration using a Packard harvester and washing with ice-cold wash buffer (50 mM Tris; pH 7.5). After drying, filter-retained radioactivity was detected by liquid scintillation counting. Ki values were calculated using Excel-Fit (Microsoft) and are the means of two determinations.

[2] = target: T2, h-GABAA α1β2γ1 (Homo sapiens, UniProt P14867+Q8N1C3); experiment: Radioligand binding assay, [3H]RO7239181 competition, HEK293F membranes
T2 construct: expressed in transfected cells; host or cells: HEK293F cells (ThermoFisher R79007), membranes
T2 sequence (P14867 28-456): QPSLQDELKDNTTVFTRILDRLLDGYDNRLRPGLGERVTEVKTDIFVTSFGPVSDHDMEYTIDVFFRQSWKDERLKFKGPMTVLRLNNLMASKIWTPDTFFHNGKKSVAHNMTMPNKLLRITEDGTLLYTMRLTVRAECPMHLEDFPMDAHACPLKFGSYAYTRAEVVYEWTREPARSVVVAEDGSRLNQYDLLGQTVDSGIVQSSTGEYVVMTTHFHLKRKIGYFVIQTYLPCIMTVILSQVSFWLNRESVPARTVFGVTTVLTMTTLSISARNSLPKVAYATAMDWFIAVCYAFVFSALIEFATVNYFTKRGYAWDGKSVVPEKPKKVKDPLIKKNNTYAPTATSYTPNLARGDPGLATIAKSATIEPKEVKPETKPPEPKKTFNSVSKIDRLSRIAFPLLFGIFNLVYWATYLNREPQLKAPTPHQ
T2 sequence (P47870 25-512 partner limits assumed): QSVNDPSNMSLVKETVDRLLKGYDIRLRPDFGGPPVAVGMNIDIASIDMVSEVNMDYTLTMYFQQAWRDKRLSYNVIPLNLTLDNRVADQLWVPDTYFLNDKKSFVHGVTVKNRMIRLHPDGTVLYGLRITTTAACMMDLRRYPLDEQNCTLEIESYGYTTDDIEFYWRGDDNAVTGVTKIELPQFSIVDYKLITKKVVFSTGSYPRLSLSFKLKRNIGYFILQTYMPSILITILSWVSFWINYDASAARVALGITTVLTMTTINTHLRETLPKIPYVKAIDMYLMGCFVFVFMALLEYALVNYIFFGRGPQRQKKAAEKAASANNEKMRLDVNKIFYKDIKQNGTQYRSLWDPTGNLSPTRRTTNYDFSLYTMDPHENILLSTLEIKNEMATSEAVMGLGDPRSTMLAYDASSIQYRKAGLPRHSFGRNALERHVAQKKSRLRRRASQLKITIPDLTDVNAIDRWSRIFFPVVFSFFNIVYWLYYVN
T2 sequence (Q8N1C3 36-465): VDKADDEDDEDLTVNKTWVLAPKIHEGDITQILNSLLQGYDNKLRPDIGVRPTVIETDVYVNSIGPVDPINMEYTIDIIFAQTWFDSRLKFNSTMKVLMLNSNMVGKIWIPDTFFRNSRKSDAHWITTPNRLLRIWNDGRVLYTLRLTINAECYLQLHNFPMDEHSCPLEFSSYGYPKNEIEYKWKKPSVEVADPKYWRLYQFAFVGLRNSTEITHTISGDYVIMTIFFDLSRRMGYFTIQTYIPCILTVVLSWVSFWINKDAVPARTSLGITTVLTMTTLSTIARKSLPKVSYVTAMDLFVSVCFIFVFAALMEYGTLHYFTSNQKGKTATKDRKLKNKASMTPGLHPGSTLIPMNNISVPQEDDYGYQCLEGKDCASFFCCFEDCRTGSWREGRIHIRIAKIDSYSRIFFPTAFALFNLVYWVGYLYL
Method: The affinity of compounds at GABAA γ1 subunit-containing receptors was measured by competition for [^3H]RO7239181 (67.3 Ci/mmol; Roche) binding to membranes from HEK293F cells (ThermoFisher R79007) expressing human (transiently transfected) receptors of composition […], α2β2γ1, α1β2γ1.
Harvested pellets from HEK293F cells expressing the different GABAA receptor subtypes were resuspended in Mannitol Buffer pH 7.2-7.4 (Mannitol 0.29M, Triethylamine 10 mM, Acetic acid 10 mM, EDTA 1 mM plus protease inhibitors (20 tablets Complete, Roche Diagnostics Cat. No. 05 056 489 001 per liter)), washed two times and then resuspended at 1:10 to 1:15 dilution in the same buffer. Cell disruption was performed by stirring the suspension in a Parr vessel #4637 at 435 psi for 15 minutes, and then the suspensions were centrifuged at 1000×g for 15 minutes at 4° C. (Beckman Avanti J-HC; rotor JS-4.2). The supernatant (S1) was transferred in a 21 Schott flask and the pellet (P1) was resuspended with Mannitol Buffer up to 175 ml. The resuspended pellet was transferred into a 250 ml Corning centrifugal beaker and centrifuged at 1500×g for 10 minutes at 4° C. (Beckman Avanti J-HC; rotor JS-4.2). The supernatant (S1) was then transferred in the 21 Schott flask and the pellet was discarded. The supernatants (S1) were centrifuged in 500 ml Beckman polypropylene centrifugal beaker at 15′000×g for 30 minutes at 4° C. (Beckman Avanti J-20 XP; rotor JLA-10.500). The pellet (P2) was resuspended with Mannitol Buffer 1:1 and frozen at −80° C. The supernatant (S2) was centrifuged in 100 ml Beckman polypropylene centrifugal tubes at 48000×g for 50 minutes at 4° C. (Beckman Avanti J-20 XP; rotor JA-18). The supernatant (S3) was discarded and the pellet (P3) was resuspended with 1:1 Mannitol Buffer. The P2 and P3 protein concentration was determined with the BIORAD Standard assay method with bovine serum albumin as standard and measured on the NANO-Drop 1000. The membrane suspension was aliquots (500 μl per tube) and stored at −80° C. until required. Membrane homogenates were resuspended and polytronised (Polytron PT1200E Kinematica AG) in Potassium Phosphate 10 mM, KCl 100 mM binding buffer at pH 7.4 to a final assay concentration determined with a previous experiment.
Assays were incubated to equilibrium for 1 hour at 4° C. and then, membranes were filtered onto unifilter (96-well white microplate with bonded GF/C filters preincubated 20-50 minutes in 0.3% Polyethylenimine) with a Filtermate 196 harvester (Packard BioScience) and washed 4 times with cold Potassium Phosphate 10 mM pH 7.4, KCl 100 mM binding buffer. After drying, filter-retained radioactivity was detected by liquid scintillation counting. Ki values were calculated using Excel-Fit (Microsoft) and are the means of two determinations.

| SMILES | Ki [1] [µM] | γ2/γ1 Selectivity Ratio ([1]; Table 1) | LogSel ([1]; Table 1) | Ki [2] [µM] | γ2/γ1 Selectivity Ratio ([1]; Table 3) | LogSel ([1]; Table 3) |
| --- | --- | --- | --- | --- | --- | --- |
| Fc1cccc(F)c1C1=NCc2nnc(-c3cccnn3)n2-c2ccc(I)c(Cl)c21 [Example 39, 7-chloro-6-(2,6-difluorophenyl)-8-iodo-1-pyridazin-3-yl-4H-[1,2,4]triazolo[4,3-a][1,4]benzodiazepine] | 0.36 | 85.8 | 1.93 | 0.0047 | – | – |
| Fc1cccnc1C1=NCc2nnc(-c3cccnn3)n2-c2ccc(Cl)c(Cl)c21 [Example 54, 7,8-dichloro-6-(3-fluoro-2-pyridyl)-1-pyridazin-3-yl-4H-[1,2,4]triazolo[4,3-a][1,4]benzodiazepine] | 2.07 | 68.7 | 1.84 | 0.121 | – | – |
| O=c1[nH]nc2n1-c1ccc(Br)c(Cl)c1C(c1c(F)cccc1F)=NC2 [Example 13, 8-bromo-7-chloro-6-(2,6-difluorophenyl)-2,4-dihydro-[1,2,4]triazolo[4,3-a][1,4]benzodiazepin-1-one] | 0.331 | 53.5 | 1.73 | 0.0062 | – | – |
| Cc1nnc2n1-c1ccc(Cl)c(Cl)c1C(c1ccccc1F)=NC2 [Example 4, 7,8-dichloro-6-(2-fluorophenyl)-1-methyl-4H-[1,2,4]triazolo[4,3-a][1,4]benzodiazepine] | 0.795 | 12.1 | 1.08 | 0.103 | – | – |
| Fc1cccc(F)c1C1=NCc2nnc(-c3cccnn3)n2-c2ccc(Br)c(Cl)c21 [Example 104, 8-bromo-7-chloro-6-(2,6-difluorophenyl)-1-pyridazin-3-yl-4H-[1,2,4]triazolo[4,3-a][1,4]benzodiazepine] | 0.0893 | 38.1 | 1.58 | 0.0042 | – | – |
| Cc1nnc2n1-c1ccc(Br)c(Cl)c1C(c1c(F)cccc1Cl)=NC2 [Example 50, 8-bromo-7-chloro-6-(2-chloro-6-fluoro-phenyl)-1-methyl-4H-[1,2,4]triazolo[4,3-a][1,4]benzodiazepine] | 0.0738 | 15.8 | 1.20 | 0.0089 | – | – |
| Cc1nnc2n1-c1ccc(Br)c(Cl)c1C(c1c(F)cccc1F)=NC2 [Example 1, 8-bromo-7-chloro-6-(2,6-difluorophenyl)-1-methyl-4H-[1,2,4]triazolo[4,3-a][1,4]benzodiazepine] | 0.146 | 18.3 | 1.26 | 0.0113 | 18.3 | 1.3 |
| Fc1ccccc1C1=NCc2nnc(C3CC3)n2-c2ccc(Br)c(Cl)c21 [Example 2, 8-bromo-7-chloro-1-cyclopropyl-6-(2-fluorophenyl)-4H-[1,2,4]triazolo[4,3-a][1,4]benzodiazepine] | 0.486 | 10.1 | 1.01 | 0.0775 | – | – |
| O=c1[nH]nc2n1-c1ccc(Br)c(Cl)c1C(c1ccccc1F)=NC2 [Example 26, 8-bromo-7-chloro-6-(2-fluorophenyl)-2,4-dihydro-[1,2,4]triazolo[4,3-a][1,4]benzodiazepin-1-one] | 0.698 | 22.1 | 1.34 | 0.0241 | – | – |
| Clc1cccnc1C1=NCc2nnc(-c3ccncn3)n2-c2ccc(Br)c(Cl)c21 [Example 44, 8-bromo-7-chloro-6-(3-chloro-2-pyridyl)-1-pyrimidin-4-yl-4H-[1,2,4]triazolo[4,3-a][1,4]benzodiazepine] | 0.276 | 28.6 | 1.46 | 0.0115 | – | – |
| Cc1ccc2c(c1Cl)C(c1c(F)cccc1F)=NCc1nnc(-c3cccnn3)n1-2 [Example 48, 7-chloro-6-(2,6-difluorophenyl)-8-methyl-1-pyridazin-3-yl-4H-[1,2,4]triazolo[4,3-a][1,4]benzodiazepine] | 0.952 | 114.1 | 2.06 | 0.0208 | – | – |
| Cc1ccc2c(c1Cl)C(c1c(F)cccc1F)=NCc1nncn1-2 [Example 17, 7-chloro-6-(2,6-difluorophenyl)-8-methyl-4H-[1,2,4]triazolo[4,3-a][1,4]benzodiazepine] | 0.493 | 24.9 | 1.40 | 0.0477 | – | – |
| Fc1cccc(F)c1C1=NCc2nncn2-c2ccc(C(F)(F)F)c(Cl)c21 [Example 37, 7-chloro-6-(2,6-difluorophenyl)-8-(trifluoromethyl)-4H-[1,2,4]triazolo[4,3-a][1,4]benzodiazepine] | 1.18 | 28.5 | 1.45 | – | – | – |
| COc1nnc2n1-c1ccc(Cl)c(Cl)c1C(c1c(F)cccc1F)=NC2 [Example 90, 7,8-dichloro-6-(2,6-difluorophenyl)-1-methoxy-4H-[1,2,4]triazolo[4,3-a][1,4]benzodiazepine] | 0.305 | 52.8 | 1.72 | – | – | – |
| OCc1nnc2n1-c1ccc(Br)c(Cl)c1C(c1c(F)cccc1F)=NC2 [Example 33, [8-bromo-7-chloro-6-(2,6-difluorophenyl)-4H-[1,2,4]triazolo[4,3-a][1,4]benzodiazepin-1-yl]methanol] | 0.232 | 18.2 | 1.26 | – | – | – |
